From patent US5935995A, “Prodrugs for the therapy of tumors and inflammatory disorders” (Heochst Aktiengesellschaft, priority 1996, dated 1999)
Like-named read-outs stand apart in the source and are kept apart here.

Assays:
[1] = test system: LoVo cells; test: Cytotoxicity on LoVo tumor cells in the presence and absence of β-glucuronidase (MTT); type: cell-based
[2] = Stability in solution in anhydrous DMSO; type: physicochemical
Method: The prodrug F 373 is stable in solution in anhydrous DMSO. To investigate the cleavability, […] of F 373 solution (5 mg/ml in DMSO) were treated with 180 ml of 0.02 M phosphate buffer pH 7.2 and 10 ml of E. coli β-glucuronidase (Sigma) (330 mg/ml) and the mixture was incubated at 37° C. 25 ml batches were diluted with 225 ml of 0.1 M phosphate buffer pH 3.0 (85%) and acetonitrile (15%) and immediately analyzed with the aid of the following HPLC system.

C=C[C@H]1C[N@@]2CC[C@H]1C[C@H]2[C@H](O)c1ccnc2ccc(OC)cc12 [quinine, reference compound] gave an IC50 ([1]; Homo sapiens, LoVo, read-out: IC50 of the toxic compound tested alone) of 103 µM.

For OCCN(CCO)c1nc(N2CCCCC2)c2nc(N(CCO)CCO)nc(N3CCCCC3)c2n1 [dipyridamole, reference compound], the IC50 ([1]; Homo sapiens, LoVo, parent toxic compound tested alone, read-out: IC50 of the toxic compound tested alone) was 43 µM.

For CN(C(=O)Oc1ccc(N(CCCl)CCCl)cc1)c1cc([N+](=O)[O-])ccc1O[C@@H]1O[C@H](C(=O)O)[C@@H](O)[C@H](O)[C@H]1O [F 373, 2-[N-Methyl-N-[4-(N,N'-bis(2-chloroethyl)amino)phenyloxycarbonyl]-amino]-4-nitrophenyl-β-D-glucuronic acid], the IC50 ([1]; read-out: IC50 with β-gluc.) was 6.3 µM, the IC50 ([1]; read-out: IC50 without β-gluc.) was > 500 µM and the stability in solution [2] was “stable”.

For C=CC1CN2CCC1CC2C(OC(=O)N(C)c1cc([N+](=O)[O-])ccc1OC1OC(C(=O)O)C(O)C(O)C1O)c1ccnc2ccc(OC)cc12 (stereo not drawn) [F 391], the IC50 ([1]; Homo sapiens, LoVo, 65 h, read-out: IC50 with β-gluc.) was 113 µM and the IC50 ([1]; Homo sapiens, LoVo, 65 h, read-out: IC50 without β-gluc.) was > 400 µM.

In the case of CN(C(=O)OCCN(CCO)c1nc(N2CCCCC2)c2nc(N(CCO)CCO)nc(N3CCCCC3)c2n1)c1cc([N+](=O)[O-])ccc1O[C@@H]1O[C@H](C(=O)O)[C@@H](O)[C@H](O)[C@H]1O [F 392], the IC50 ([1]; Homo sapiens, LoVo cells, 65 h, with β-glucuronidase (50 mg/mil final concentration), read-out: IC50 with β-gluc.) is reported as 49.5 µM and the IC50 ([1]; Homo sapiens, LoVo cells, 65 h, without β-glucuronidase, read-out: IC50 without β-gluc.) is reported as > 400 µM.
